Laboratory results taken from patent US6403602B1 (priority 1997, dated 2002).

What was measured:
[1] = tested on: electrically stimulated guinea pig ileum; test: tissue or blood; format: cell-based
kappa1 sites = biological target: T1, kappa1 sites (Cavia porcellus, UniProt P41144); test: biochemical; format: binding, guinea pig
T1 construct: The brains were then homogenized in 50 mM Tris HCl, buffer pH 7.7, using a Polytron; from tissue; host or cells: guinea pig brain homogenate (membrane pellet)

[2] = tested on: morphine withdrawal signs; test: Single dose substitution and precipitated morphine withdrawal in morphine dependent Rhesus monkeys; conditions: sc, M3A6S 2.5 and 10.0 mg/kg, DM3A6S 3.0, 12.0 and […]
delta receptors = biological target: T2, delta receptors (Cavia porcellus, UniProt A0A286XTF2); test: biochemical; format: binding, guinea pig
T2 construct: The brains were then homogenized in 50 mM Tris HCl, buffer pH 7.7, using a Polytron; from tissue; host or cells: guinea pig brain homogenate (membrane pellet)

kappa receptors = biological target: T3, kappa receptors (Cavia porcellus, UniProt P41144); format: cell-based, guinea pig
T3 construct: The longitudinal muscle with the myenteric plexus attached was gently separated from the underlying circular muscle; from tissue; host or cells: guinea pig ileum longitudinal muscle with myenteric plexus

κ2 sites = format: binding, guinea pig
mu opioid receptors = mu opioid receptors (Cavia porcellus, UniProt A0ACM8Q262); format: binding, guinea pig
nociception (tail-flick) [3] = test: Tail-flick test after intracerebroventricular administration; format: in vivo; conditions: rat tail-flick, icv, molar dose equivalent to the lower dose of morphine
mu receptors = format: cell-based, guinea pig
nociception (tail-flick) [4] = test: Tail-flick test after subcutaneous administration; conditions: rat tail-flick, sc, dose equimolar to 5 mg/kg morphine
kappa3 receptors = format: binding, guinea pig
[5] = tested on: electrically stimulated mouse vas deferens; test: tissue or blood; format: cell-based; conditions: Mus musculus, read-out: Mouse vas deferens maximum inhibition

T3 sequence (P41144 whole entry): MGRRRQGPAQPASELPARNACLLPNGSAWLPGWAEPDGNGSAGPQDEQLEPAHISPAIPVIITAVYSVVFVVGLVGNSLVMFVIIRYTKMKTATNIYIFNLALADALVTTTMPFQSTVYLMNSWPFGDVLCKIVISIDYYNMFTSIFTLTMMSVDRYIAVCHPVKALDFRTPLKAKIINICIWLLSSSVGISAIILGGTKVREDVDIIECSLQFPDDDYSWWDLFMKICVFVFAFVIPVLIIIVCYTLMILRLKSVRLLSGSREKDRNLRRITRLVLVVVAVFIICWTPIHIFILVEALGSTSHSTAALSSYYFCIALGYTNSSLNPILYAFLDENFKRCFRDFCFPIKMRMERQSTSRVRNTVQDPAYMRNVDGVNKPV
mu opioid receptors, sequence (A0ACM8Q262 1-400): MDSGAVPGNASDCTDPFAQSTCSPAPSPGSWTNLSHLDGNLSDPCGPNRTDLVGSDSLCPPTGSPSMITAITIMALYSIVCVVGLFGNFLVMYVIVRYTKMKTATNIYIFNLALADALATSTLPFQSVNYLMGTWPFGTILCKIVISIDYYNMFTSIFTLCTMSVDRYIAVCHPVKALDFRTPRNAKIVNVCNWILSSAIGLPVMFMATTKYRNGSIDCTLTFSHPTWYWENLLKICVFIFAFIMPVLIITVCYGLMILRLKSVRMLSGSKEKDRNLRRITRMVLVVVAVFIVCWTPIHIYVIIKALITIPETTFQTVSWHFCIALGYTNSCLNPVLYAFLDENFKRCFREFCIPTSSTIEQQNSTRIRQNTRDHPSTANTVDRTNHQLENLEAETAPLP
T1 sequence (P41144 whole entry): as the sequence (P41144 whole entry) above
T2 sequence (A0A286XTF2 1-366): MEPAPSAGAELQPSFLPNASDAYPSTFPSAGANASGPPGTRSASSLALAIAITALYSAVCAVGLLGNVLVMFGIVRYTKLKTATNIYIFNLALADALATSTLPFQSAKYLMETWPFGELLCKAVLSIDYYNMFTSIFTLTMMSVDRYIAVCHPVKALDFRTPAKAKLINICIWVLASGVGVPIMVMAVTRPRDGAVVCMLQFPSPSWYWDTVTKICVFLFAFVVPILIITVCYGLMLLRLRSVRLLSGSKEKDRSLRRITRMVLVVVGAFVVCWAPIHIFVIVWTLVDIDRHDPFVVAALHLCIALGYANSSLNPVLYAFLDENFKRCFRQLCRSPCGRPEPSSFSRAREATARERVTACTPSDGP

CC(=O)Oc1ccc2c3c1O[C@H]1[C@@H](OS(=O)(=O)O)C=C[C@H]4[C@@H](C2)N(C)CC[C@@]341 [NIDA # 20,264, 3-O-Acetylmorphine-6-O-sulfate]
Guinea pig ileum, result in words [1]: inhibited electrically induced twitches | IC50 ([1]; Cavia porcellus, read-out: Guinea Pig Ileum IC50 (nM)): 25.9 ± 5.3 nM | Ki (kappa1 sites): 1160 nM | binding to kappa1 sites in words (kappa1 sites): weakly | substitution for morphine / withdrawal, in words [2]: did not substitute for morphine, nor did it exacerbate withdrawal | Ki (delta receptors): 308 nM | Guinea Pig Ileum DR with Nor-BNI (kappa receptors): 1.39 ± 0.14 | Guinea Pig Ileum Ke of Nor-BNI (kappa receptors): 54.42 ± 19.6 | Guinea Pig Ileum Ratio (Nor-BNI) (kappa receptors): 0.001 | IC50 (κ2 sites): > 10000 nM | Ki mu/Ki delta (mu opioid receptors): 0.0026 | affinity to mu receptors in words (mu opioid receptors): greater affinity than that of morphine | selectivity for mu-receptors, greater than morphine (mu opioid receptors): 3 fold | duration of maximal analgesia (nociception (tail-flick) [3]): 90 min | time to maximal analgesic effect (nociception (tail-flick) [3]): 10 min | Guinea Pig Ileum DR with CTAP (mu receptors): 5.40 ± 0.18 | Guinea Pig Ileum Ke of CTAP (mu receptors): 22.73 ± 0.91 | Guinea Pig Ileum Ratio (CTAP) (mu receptors): 0.851 | analgesic activity in words (nociception (tail-flick) [4]): analgesic profile similar to that of M6S | duration of maximal analgesic effect (nociception (tail-flick) [4]): 4 h | affinity to kappa3 receptors in words (kappa3 receptors): greater affinity than that of morphine | selectivity for kappa3 receptors, greater than morphine (kappa3 receptors): 2.2 fold | Ki (kappa3 receptors; read-out: Ki κ3 [^3H]NalBzoH): 5.5 nM | inhibition at 200 µM [5]: 30%
